Consider one compound from patent US20250332143A1, “COMPOSITION COMPRISING ALOX5 INHIBITOR FOR PREVENTING OR TREATING SARCOPENIA” (PLUTO Inc., priority 2022, published 2025).

One test has as its system atrogin-1 and MuRF-1. The experiment in a line: qPCR of atrogin-1 and MuRF-1 in human myotubes. Type of test: cell-based. On the procedure:
(§1) For quantitative real-time PCR, transcript levels of genes of interest were analyzed using the StepOnePlus real-time PCR system (Applied Biosystems, UK). Total RNA was reverse transcribed to prepare cDNA using AccuPower® RT PreMix (Bioneer Corporation). The obtained cDNA was subjected to real-time PCR according to the manufacturer's instructions with the following changes. PCR was performed in triplicate in a total volume of 20 μL 2× Power SYBR Green PCR Master Mix (Enzynomics, Republic of Korea) containing 200 nM (final concentration) of each specific primer and 1 μL of cDNA synthesized from 1 μg of total RNA. […] Denaturation was performed at 95° C. for 15 s, annealing was performed at 60° C. for 1 min, and extension was performed at 72° C. for 20 s with fluorescence detection at 72° C. after each cycle. After the final cycle, melting point analysis of all samples was performed within the range of 60 to 95° C. using continuous fluorescence detection. […] Results were expressed as relative expression levels for each gene. The synthesized cDNA was amplified by quantitative real-time PCR (qRT-PCR) or standard PCR.
Human-derived myoblasts were purchased from Thermo-Fisher Scientific (USA). […] Myotubes were stained with H&E. After light microscopy analysis of DIC captured images (Olympus CKX41), myotubes were measured using ImageJ 1.48 software (National Institutes of Health, USA).
(In qPCR the cycle at which signal appears reflects the starting amount.)

Test [1] deals with differentiating C2C12 myoblasts. The experiment in a line: Myogenesis of mouse myotubes differentiated in presence of compound. Type of test: cell-based. On the procedure:
C2C12 murine skeletal muscle myoblasts were obtained from Koram Biotech (Republic of Korea). The cells were maintained in DMEM growth medium supplemented with 10% FBS, 1% penicillin, and streptomycin. When myoblasts proliferated to approximately 90%, they were differentiated into muscle fibers by treating them with DMEM differentiation medium supplemented with 2% HS, 1% penicillin, and streptomycin for 96 hours. Differentiated muscle fibers were treated with 10 μM Dex for 24 hours to induce sarcopenia. To evaluate the degree of differentiation of muscle cells, differentiating myoblasts were treated with the corresponding compound in differentiation medium for 24 or 48 hours.
The concentration of intracellular protein was measured using the Bradford assay (Bio-Rad, USA, CA), and electrophoresis was performed by loading on 10% and 12% polyacrylamide gels. Afterwards, the separated proteins were transferred to a PVDF membrane, and the primary antibody used was diluted 1:1000 in TBS-T containing 5% skim milk and incubated overnight at 4° C. Secondary antibodies were diluted 1:2000 and incubated for 35 minutes at room temperature (RT). Band intensity was measured using ImageJ 1.52 software (National Institutes of Health, USA), and intracellular protein was normalized to α-tubulin.
as §1, with “Corporation).” for “Corporation). The obtained cDNA was subjected to real-time PCR according to the manufacturer's instructions with the following changes. PCR was performed in triplicate in a total volume of 20 μL 2× Power SYBR Green PCR Master Mix (Enzynomics, Republic of Korea) containing 200 nM (final concentration) of each specific primer and 1 μL of cDNA synthesized from 1 μg of total RNA.”

Consider `CC(C)OC(=O)C(C(=O)OC(C)C)=C1SC=CS1` [malotilate, Malotilate], for which, in the test on atrogin-1 and MuRF-1, the MuRF-1 expression entry is listed as “significantly reduced” and the atrogin-1 expression entry is on record as “significantly reduced”. Further, the “expression of master gene regulators of the myogenic program (Pax7, Myf5, MyoG, Myh2)” value in test [1] (after 24 h of treatment, qPCR) is “no significant changes”. In addition, the “phosphorylation level of Akt” value in test [1] (differentiated myotubes) is on record as “not significantly altered”. Besides, the “expression of differentiation marker Myh2” value in test [1] (during myogenesis, Western blot) was “not affected”.
